Legend:
[1] = test system: Oryza sativa; test: Herbicidal activity against Oryza sativa (rice) assessed as relative growth inhibition at 450 g/ha in greenhouse by postemergence herbicidal activity assay; format: organism-based; settings: in vivo, other
[2] = test system: Zea mays; test: Herbicidal activity against Zea mays (maize) assessed as relative growth inhibition at 450 g/ha in greenhouse by postemergence herbicidal activity assay; format: organism-based; settings: in vivo, other
[3] = test system: Polygonum aviculare; test: Herbicidal activity against Polygonum aviculare assessed as relative growth inhibition at 100 g/ha in greenhouse by post-emergence herbicidal activity assay; format: functional; settings: read-out: GI
[4] = test system: Chenopodium album; test: Herbicidal activity against Chenopodium album assessed as relative growth inhibition at 900 g/ha in greenhouse by post-emergence herbicidal activity assay; format: functional; settings: read-out: GI
[5] = test system: Chenopodium album; test: Herbicidal activity against Chenopodium album assessed as relative growth inhibition at 100 g/ha in greenhouse by post-emergence herbicidal activity assay; format: functional; settings: read-out: GI
[6] = test system: Abutilon theophrasti; test: Herbicidal activity against two to three-leaf stage Abutilon theophrasti (velvetleaf) assessed as inhibition of plant growth at 150 g/ha in greenhouse by post-emergence herbicidal activity assay; format: functional; settings: read-out: GI
[7] = test system: Oryza sativa; test: Herbicidal activity against Oryza sativa (rice) assessed as relative growth inhibition at 900 g/ha in greenhouse by postemergence herbicidal activity assay; format: organism-based; settings: in vivo, other
[8] = test system: Polygonum aviculare; test: Herbicidal activity against Polygonum aviculare assessed as relative growth inhibition at 600 g/ha in greenhouse by post-emergence herbicidal activity assay; format: functional; settings: read-out: GI
[9] = test system: Amaranthus blitum; test: Herbicidal activity against Amaranthus blitum assessed as relative growth inhibition at 100 g/ha in greenhouse by post-emergence herbicidal activity assay; format: functional; settings: read-out: GI
[10] = test system: Amaranthus spinosus; test: Herbicidal activity against Amaranthus spinosus assessed as relative growth inhibition at 300 g/ha in greenhouse by postemergence herbicidal activity assay; format: functional; settings: post-emergence, read-out: GI
[11] = test system: Zea mays; test: Herbicidal activity against Zea mays (maize) assessed as relative growth inhibition at 200 g/ha in greenhouse by postemergence herbicidal activity assay; format: organism-based; settings: in vivo, other
[12] = test system: Amaranthus spinosus; test: Herbicidal activity against Amaranthus spinosus assessed as relative growth inhibition at 50 g/ha in greenhouse by postemergence herbicidal activity assay; format: functional; settings: post-emergence, read-out: GI
[13] = test system: Chenopodium album; test: Herbicidal activity against Chenopodium album assessed as relative growth inhibition at 1200 g/ha in greenhouse by post-emergence herbicidal activity assay; format: functional; settings: read-out: GI
[14] = test system: Polygonum aviculare; test: Herbicidal activity against Polygonum aviculare assessed as relative growth inhibition at 450 g/ha in greenhouse by post-emergence herbicidal activity assay; format: functional; settings: read-out: GI
[15] = test system: Beta vulgaris; test: Herbicidal activity against Beta vulgaris assessed as relative growth inhibition at 900 g/ha in greenhouse by post-emergence herbicidal activity assay; format: functional; settings: read-out: GI
[16] = test system: Chenopodium album; test: Herbicidal activity against Chenopodium album assessed as relative growth inhibition at 200 g/ha in greenhouse by post-emergence herbicidal activity assay; format: functional; settings: read-out: GI
[17] = test system: Brassica rapa subsp. oleifera; test: Herbicidal activity against Brassica rapa subsp. oleifera assessed as inhibition of rape root growth; format: functional, organism-based
[18] = test system: Chenopodium album; test: Herbicidal activity against Chenopodium album assessed as relative growth inhibition at 600 g/ha in greenhouse by post-emergence herbicidal activity assay; format: functional; settings: read-out: GI
[19] = test system: Amaranthus blitum; test: Herbicidal activity against Amaranthus blitum assessed as relative growth inhibition at 50 g/ha in greenhouse by post-emergence herbicidal activity assay; format: functional; settings: read-out: GI
[20] = test system: Beta vulgaris; test: Herbicidal activity against Beta vulgaris assessed as relative growth inhibition at 600 g/ha in greenhouse by post-emergence herbicidal activity assay; format: functional; settings: read-out: GI
[21] = test system: Amaranthus spinosus; test: Herbicidal activity against Amaranthus spinosus assessed as relative growth inhibition at 200 g/ha in greenhouse by postemergence herbicidal activity assay; format: functional; settings: post-emergence, read-out: GI
[22] = test system: Amaranthus blitum; test: Herbicidal activity against Amaranthus blitum assessed as relative growth inhibition at 900 g/ha in greenhouse by post-emergence herbicidal activity assay; format: functional; settings: read-out: GI
[23] = test system: Polygonum aviculare; test: Herbicidal activity against Polygonum aviculare assessed as relative growth inhibition at 900 g/ha in greenhouse by post-emergence herbicidal activity assay; format: functional; settings: read-out: GI
[24] = test system: Zea mays; test: Herbicidal activity against Zea mays (maize) assessed as relative growth inhibition at 300 g/ha in greenhouse by postemergence herbicidal activity assay; format: organism-based; settings: in vivo, other
[25] = test system: Chenopodium album; test: Herbicidal activity against Chenopodium album assessed as relative growth inhibition at 450 g/ha in greenhouse by post-emergence herbicidal activity assay; format: functional; settings: read-out: GI
[26] = test system: Oryza sativa; test: Herbicidal activity against Oryza sativa (rice) assessed as relative growth inhibition at 300 g/ha in greenhouse by postemergence herbicidal activity assay; format: organism-based; settings: in vivo, other
[27] = test system: Beta vulgaris; test: Herbicidal activity against Beta vulgaris assessed as relative growth inhibition at 200 g/ha in greenhouse by post-emergence herbicidal activity assay; format: functional; settings: read-out: GI
[28] = test system: Beta vulgaris; test: Herbicidal activity against Beta vulgaris assessed as relative growth inhibition at 100 g/ha in greenhouse by post-emergence herbicidal activity assay; format: functional; settings: read-out: GI
[29] = test system: Amaranthus blitum; test: Herbicidal activity against Amaranthus blitum assessed as relative growth inhibition at 300 g/ha in greenhouse by post-emergence herbicidal activity assay; format: functional; settings: read-out: GI
[30] = test system: Amaranthus spinosus; test: Herbicidal activity against Amaranthus spinosus assessed as relative growth inhibition at 1200 g/ha in greenhouse by postemergence herbicidal activity assay; format: functional; settings: post-emergence, read-out: GI
[31] = test system: Amaranthus blitum; test: Herbicidal activity against Amaranthus blitum assessed as relative growth inhibition at 200 g/ha in greenhouse by post-emergence herbicidal activity assay; format: functional; settings: read-out: GI
[32] = test system: Brassica juncea; test: Herbicidal activity against two to three-leaf stage Brassica juncea assessed as inhibition of plant growth at 450 g/ha in greenhouse by post-emergence herbicidal activity assay; format: functional; settings: read-out: GI
[33] = test system: Zea mays; test: Herbicidal activity against Zea mays (maize) assessed as relative growth inhibition at 600 g/ha in greenhouse by postemergence herbicidal activity assay; format: organism-based; settings: in vivo, other

COP(=O)(OC)C(OC(=O)COc1ccc(Cl)cc1Cl)c1ccco1 (stereo not drawn)
0%: growth inhibition (GI) [1] | growth inhibition (GI) [2] | growth inhibition (GI) [7] | growth inhibition (GI) [11] | growth inhibition (GI) [24] | growth inhibition (GI) [26] | growth inhibition (GI) [33]
60%: inhibition of growth at 50 g/ha [12]
95%: inhibition of growth at 150 g/ha [6]
98%: inhibition of growth at 300 g/ha [10] | inhibition of growth at 200 g/ha [21] | inhibition of growth at 200 g/ha [27]
90%: inhibition of growth at 100 g/ha [5]
96.5%: inhibition of growth at 450 g/ha [32]
80%: inhibition of growth at 100 g/ha [28]
100%: inhibition of growth at 900 g/ha [4] | inhibition of growth at 600 g/ha [8] | inhibition of growth at 100 g/ha [9] | inhibition of growth at 1200 g/ha [13] | inhibition of growth at 450 g/ha [14] | inhibition of growth at 900 g/ha [15] | inhibition of growth at 200 g/ha [16] | inhibition of growth at 600 g/ha [18] | inhibition of growth at 50 g/ha [19] | inhibition of growth at 600 g/ha [20] | inhibition of growth at 900 g/ha [22] | inhibition of growth at 900 g/ha [23] | inhibition of growth at 450 g/ha [25] | inhibition of growth at 300 g/ha [29] | inhibition of growth at 1200 g/ha [30] | inhibition of growth at 200 g/ha [31]
41.8 nM: IC50 [17]
83%: inhibition of growth at 100 g/ha [3]
